Assay results as given in ChEMBL document CHEMBL3525906, “A comprehensive assessment of repaglinide metabolic pathways: impact of choice of in vitro system and relative enzyme contribution to in vitro clearance” (Drug Metab Dispos, 2012).

Legend:
Liver microsome [1] = experiment: Drug metabolism in human liver microsomes assessed as 3'-hydroxy repaglinide formation measured per mg of protein at 0.5 to 150 uM by LC-MS/MS method; assay type: ADME
[2] = Drug metabolism in human hepatic S9 fraction assessed as 3'-hydroxy repaglinide formation measured per mg of protein at 0.5 to 150 uM by LC-MS/MS method; assay type: ADME, Liver; conditions: s9, 150 µM
[3] = Drug metabolism in human hepatocytes assessed as 3'-hydroxy repaglinide formation by LC-MS/MS method; assay type: ADME, cell-based, Hepatocyte
[4] = Drug metabolism in human hepatic S9 fraction assessed as 3'-hydroxy repaglinide formation by LC-MS/MS method; assay type: ADME, Liver
Hepatocyte [5] = experiment: Unbound intrinsic clearance in human hepatocytes assessed as 3'-hydroxy repaglinide formation measured per 10^6 cells at 0.5 to 150 uM by LC-MS/MS method; assay type: ADME, cell-based
Cytochrome P450 3A4 [6] = target: T1, Cytochrome P450 3A4 (Homo sapiens, UniProt P08684); experiment: Unbound intrinsic clearance in human recombinant CYP3A4 expressed in insect cells assessed as enzyme-mediated 3'-hydroxy repaglinide formation per nanomole of protein at 0.5 to 150 uM by LC-MS/MS method; assay type: ADME
T1 sequence (P08684 whole entry): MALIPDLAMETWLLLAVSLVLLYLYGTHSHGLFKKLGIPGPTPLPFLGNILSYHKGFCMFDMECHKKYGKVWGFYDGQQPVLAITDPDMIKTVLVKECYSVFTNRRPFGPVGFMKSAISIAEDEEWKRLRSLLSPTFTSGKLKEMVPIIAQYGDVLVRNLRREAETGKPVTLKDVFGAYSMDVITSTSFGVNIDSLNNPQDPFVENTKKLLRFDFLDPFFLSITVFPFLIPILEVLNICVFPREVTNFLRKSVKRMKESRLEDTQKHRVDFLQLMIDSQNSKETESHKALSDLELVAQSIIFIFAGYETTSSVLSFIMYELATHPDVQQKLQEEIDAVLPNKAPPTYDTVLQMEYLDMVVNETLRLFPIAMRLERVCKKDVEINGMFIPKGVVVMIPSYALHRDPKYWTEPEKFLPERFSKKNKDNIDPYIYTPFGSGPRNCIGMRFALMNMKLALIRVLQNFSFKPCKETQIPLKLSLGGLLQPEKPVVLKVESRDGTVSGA

Liver microsome [7] = experiment: Drug metabolism in human liver microsomes assessed as 2-despiperidyl-2-amino repaglinide formation measured per mg of protein at 0.5 to 150 uM by LC-MS/MS method; assay type: ADME
[8] = Fraction metabolism via UGT in human hepatocytes; assay type: ADME, cell-based, Hepatocyte
Cytochrome P450 2C8 [9] = target: T2, Cytochrome P450 2C8 (Homo sapiens, UniProt P10632); experiment: Fraction metabolism via CYP2C8 in human hepatic S9 fraction; assay type: ADME, Liver
T2 sequence (P10632 whole entry): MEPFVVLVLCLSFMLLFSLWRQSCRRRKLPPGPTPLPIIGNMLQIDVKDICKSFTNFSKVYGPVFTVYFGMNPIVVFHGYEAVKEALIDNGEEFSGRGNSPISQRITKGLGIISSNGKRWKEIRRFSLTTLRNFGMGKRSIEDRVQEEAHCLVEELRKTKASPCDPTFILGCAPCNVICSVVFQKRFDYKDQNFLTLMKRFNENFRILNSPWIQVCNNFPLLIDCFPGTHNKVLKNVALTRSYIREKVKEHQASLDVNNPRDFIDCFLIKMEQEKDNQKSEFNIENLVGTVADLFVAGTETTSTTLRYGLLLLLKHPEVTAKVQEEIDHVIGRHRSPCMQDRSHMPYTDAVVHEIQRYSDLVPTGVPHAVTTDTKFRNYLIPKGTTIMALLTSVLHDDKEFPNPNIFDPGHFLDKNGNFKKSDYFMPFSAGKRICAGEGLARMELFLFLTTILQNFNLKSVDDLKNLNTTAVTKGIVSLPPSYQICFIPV

Cytochrome P450 3A4 [10] = target: T1, Cytochrome P450 3A4; experiment: Fraction metabolism via CYP3A4 in human hepatic S9 fraction; assay type: ADME, Liver
[11] = Fraction metabolism via UGT in human hepatic S9 fraction; assay type: ADME, Liver
Cytochrome P450 2C8 [12] = target: T2, Cytochrome P450 2C8; experiment: Fraction metabolism via CYP2C8 in human liver microsomes; assay type: ADME
[13] = Fraction metabolism via UGT in human liver microsomes; assay type: ADME
[14] = Half life in type 2 diabetes patient; assay type: ADME, organism-based; conditions: human, in vivo
Homo sapiens [15] = organism: Homo sapiens; experiment: Drug metabolism in human patient assessed as fold change in metabolite M2/M1 AUC ratio at 0.25 mg co-treated with montelukast relative to montelukast non-treated patient; assay type: ADME, organism-based; conditions: in vivo
Homo sapiens [16] = organism: Homo sapiens; experiment: Drug metabolism in human patient assessed as fold change in metabolite M2/M4 AUC ratio at 0.25 mg co-treated with gemfibrozil on various time intervals relative to gemfibrozil non-treated patient; assay type: ADME, organism-based; conditions: in vivo
Homo sapiens [17] = organism: Homo sapiens; experiment: Drug metabolism in human patient assessed as fold change in metabolite M2/M4 AUC ratio at 0.25 mg co-treated with telithromycin relative to telithromycin non-treated patient; assay type: ADME, organism-based; conditions: in vivo
Homo sapiens [18] = organism: Homo sapiens; experiment: Drug metabolism in human patient assessed as fold change in metabolite M2/M4 AUC ratio at 0.25 mg co-treated with montelukast relative to montelukast non-treated patient; assay type: ADME, organism-based; conditions: in vivo
Homo sapiens [19] = organism: Homo sapiens; experiment: Ratio of AUC in variable OATP1B1 genotype human patient at 0.25 mg to AUC in ariable OATP1B1 genotype human patient at 0.25 mg co-treated with gemfibrozil on various time intervals; assay type: ADME, organism-based; conditions: in vivo
Homo sapiens [20] = organism: Homo sapiens; experiment: Ratio of AUC in human patient at 0.25 mg to AUC in human patient at 0.25 mg co-treated with telithromycin; assay type: ADME, organism-based; conditions: in vivo
Homo sapiens [21] = organism: Homo sapiens; experiment: Ratio of AUC in human patient at 0.25 mg to AUC in human patient at 0.25 mg co-treated with trimethoprim; assay type: ADME, organism-based; conditions: in vivo
Homo sapiens [22] = organism: Homo sapiens; experiment: Drug metabolism in human patient assessed as fold change in metabolite M2/M1 AUC ratio at 0.25 mg co-treated with gemfibrozil on various time intervals relative to gemfibrozil non-treated patient; assay type: ADME, organism-based; conditions: in vivo
Homo sapiens [23] = organism: Homo sapiens; experiment: Drug metabolism in human patient assessed as fold change in metabolite M2/M1 AUC ratio at 0.25 mg co-treated with telithromycin relative to telithromycin non-treated patient; assay type: ADME, organism-based; conditions: in vivo
[24] = Drug metabolism in human hepatocytes assessed as 2-despiperidyl-2-amino repaglinide formation by LC-MS/MS method; assay type: ADME, cell-based, Hepatocyte
Liver microsome [25] = experiment: Drug metabolism in human liver microsomes assessed as 2-despiperidyl-2-amino repaglinide formation by LC-MS/MS method; assay type: ADME
Hepatocyte [26] = experiment: Unbound intrinsic clearance in human hepatocytes assessed as 2-despiperidyl-2-amino repaglinide formation measured per 10^6 cells at 0.5 to 150 uM by LC-MS/MS method; assay type: ADME, cell-based
[27] = Unbound intrinsic clearance in human hepatic S9 fraction assessed as 2-despiperidyl-2-amino repaglinide formation measured per mg of protein at 0.5 to 150 uM by LC-MS/MS method; assay type: ADME, tissue-based, Liver; conditions: s9, 150 µM
Cytochrome P450 3A5 = Cytochrome P450 3A5 (Homo sapiens, UniProt P20815); experiment: Unbound intrinsic clearance in human recombinant CYP3A5 expressed in insect cells assessed as enzyme-mediated 2-despiperidyl-2-amino repaglinide formation per nanomole of protein at 0.5 to 150 uM by LC-MS/MS method; assay type: ADME
Cytochrome P450 3A5, sequence (P20815 whole entry): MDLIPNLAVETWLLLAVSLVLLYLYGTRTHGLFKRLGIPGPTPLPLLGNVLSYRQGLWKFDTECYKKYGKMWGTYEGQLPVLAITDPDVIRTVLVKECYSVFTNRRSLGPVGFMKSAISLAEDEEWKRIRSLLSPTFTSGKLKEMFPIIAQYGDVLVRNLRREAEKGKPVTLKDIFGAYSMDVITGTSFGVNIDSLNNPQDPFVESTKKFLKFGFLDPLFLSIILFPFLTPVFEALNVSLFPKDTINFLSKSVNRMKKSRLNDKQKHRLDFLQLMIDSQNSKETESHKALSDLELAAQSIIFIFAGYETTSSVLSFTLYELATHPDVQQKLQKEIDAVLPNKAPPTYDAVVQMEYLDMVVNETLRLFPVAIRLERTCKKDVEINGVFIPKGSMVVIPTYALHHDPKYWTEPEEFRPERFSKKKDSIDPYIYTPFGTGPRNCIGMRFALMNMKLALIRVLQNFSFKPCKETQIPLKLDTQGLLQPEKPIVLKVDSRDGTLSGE

Liver microsome [28] = experiment: Drug metabolism in human liver microsomes assessed as glucuronide formation measured per mg of protein at 0.5 to 150 uM by LC-MS/MS method; assay type: ADME
[29] = Drug metabolism in human hepatocytes assessed as glucuronide formation by LC-MS/MS method; assay type: ADME, cell-based, Hepatocyte
Liver microsome [30] = experiment: Drug metabolism in human liver microsomes assessed as glucuronide formation by LC-MS/MS method; assay type: ADME
Hepatocyte [31] = experiment: Unbound intrinsic clearance in human hepatocytes assessed as glucuronide formation measured per 10^6 cells at 0.5 to 150 uM by LC-MS/MS method; assay type: ADME, cell-based
Liver microsome [32] = experiment: Unbound intrinsic clearance in human liver microsomes assessed as glucuronide formation measured per mg of protein at 0.5 to 150 uM by LC-MS/MS method; assay type: ADME
[33] = Unbound intrinsic clearance in human hepatic S9 fraction assessed as glucuronide formation measured per mg of protein at 0.5 to 150 uM by LC-MS/MS method; assay type: ADME, tissue-based, Liver; conditions: s9, 150 µM
[34] = Drug metabolism in human hepatic S9 fraction assessed as 2-despiperidyl-2-(5-carboxypentylamine) repaglinide formation measured per mg of protein at 0.5 to 150 uM by LC-MS/MS method; assay type: ADME, Liver; conditions: s9, 150 µM
[35] = Drug metabolism in human hepatic S9 fraction assessed as 2-despiperidyl-2-(5-carboxypentylamine) repaglinide formation by LC-MS/MS method; assay type: ADME, Liver

## CCOc1cc(CC(=O)N[C@@H](CC(C)C)c2ccccc2N2CCCCC2)ccc1C(=O)O [REPAGLINIDE]
Liver microsome [1]
  Vmax: 130 pmol/min/mg
[2]
  Vmax: 18 pmol/min/mg
[3]
  Km: 13 µM
[4]
  Km: 13 µM
Hepatocyte [5]
  CL free: 2.4 uL/min/10^6cells
Cytochrome P450 3A4 [6]
  CL free: 2 µL/min/nmol
Liver microsome [7]
  Vmax: 170 pmol/min/mg
[8]
  Fm: 0.02
Cytochrome P450 2C8 [9]
  Fm: 0.41
Cytochrome P450 3A4 [10]
  Fm: 0.39
[11]
  Fm: 0.2
Cytochrome P450 2C8 [12]
  Fm: 0.63
[13]
  Fm: 0.19
[14]
  half-life: 60 min
Homo sapiens [15]
  fold change (FC): 1.1
Homo sapiens [16]
  fold change (FC): 0.94
Homo sapiens [17]
  fold change (FC): 0.8
Homo sapiens [18]
  fold change (FC): 0.98
Homo sapiens [19]
  Ratio: 1
Homo sapiens [20]
  Ratio: 1.8
Homo sapiens [21]
  Ratio: 1.6
Homo sapiens [22]
  fold change (FC): 0.39
Homo sapiens [23]
  fold change (FC): 3.9
[24]
  Km: 58 µM
Liver microsome [25]
  Km: 47 µM
Hepatocyte [26]
  CL free: 0.75 uL/min/10^6cells
[27]
  CL free: 0.76 µL/min/mg
Cytochrome P450 3A5
  CL free: 1.4 µL/min/nmol
Liver microsome [28]
  Vmax: 170 pmol/min/mg
[29]
  Km: 53 µM
Liver microsome [30]
  Km: 37 µM
Hepatocyte [31]
  CL free: 0.13 uL/min/10^6cells
Liver microsome [32]
  CL free: 5.6 µL/min/mg
[33]
  CL free: 1.8 µL/min/mg
[34]
  Vmax: 94 pmol/min/mg
[35]
  Km: 47 µM
